In patent US7196110B2, “N-substituted tricyclic 3-aminopyrazoles as inhibitors for the treatment of cell proliferative disorders” (Janssen Phamaceutica N.V., priority 2002, dated 2007):
pIC50: −log10 of the molar value.

What was measured:
c-Abl kinase = c-Abl kinase (Abelson murine leukemia virus, UniProt P00521); assay: Inhibition of c-Abl kinase activity (cell-free, Abl peptide substrate, 33P Flashplate); format: biochemical; conditions: IC50 for the c-Abl kinase activity
Description: The inhibitory activity of compounds within the scope of the invention on c-Abl kinase activity was tested according to the following procedure.
• 1. 10× Kinase Buffer [500 mM Tris-HCl pH=8, 100 mM MgCl2, 1 mM Na3VO4] • 2. 10 mM DTT [final concentration 1 mM] • 3. 10 mM ATP [final concentration 5 μM] (Gibco, Cat No:18330-019, Carlsbad, Calif.) • 4. ^33P-γ-ATP [NEG-602H; 2000–3000 Ci/mmol], 2 μCuries per well at 10 μCi/μl (0.2 μl/well) • 5. Abl enzyme (New England Biolabs, Cat No. P6050L, Beverly, Mass.) at 100 Units/μl use 10 Units/well (0.1 μl/well) • 6. Enzyme Dilution Buffer [50 mM Tris-HCl pH=8.0, 0.1% BSA] • 7. Wash/Stop Buffer [PBS+100 mM EDTA] • 8. NEN Streptavidin Flashplates (New England Nuclear, Cat No. SMP-103, Boston, Mass.). • 9. Abl Peptide Substrate (Biotin-[…]-amide) at 1 mM in 50 mM Tris-HCL pH=8.0. (Use at 1.0 μM). Procedure
Reagents were first mixed according to the following regimen:
The above reaction mixture was dispensed into each well of a Flashplate at 70 μl/well. To test the effect of a compound on Abl kinase activity, the test compound either in a fixed concentration or in serially diluted concentrations in 100% DMSO was added to appropriate wells at 1 μl/well.
Enzyme Abl was diluted in enzyme dilution buffer as following:
The kinase reaction was started by adding 30 μl of diluted Abl enzyme solution to each well on the Flashplate containing hot ATP (2 μCi/well) and Abl peptide substrate (at 1 μM final conc.), except wells of column 12 rows E and F, which were used to calculate the plate background. The Flashplate was swirled to mix and was incubated at 30° C. for 60 minutes. Then, the reaction mixture was discarded and the Flashplate was washed 3 times each with 200 μL Wash/Stop Buffer. Subsequently, each well on the Flashplate was filled with 200 μl of Wash/Stop buffer. The amount of ^33P retained in each well was measured using a Packard TopCount after the plate was sealed with a transparent plate sealer.
In order to test the potency of inhibition of present compounds, an IC50 for an individual compound was measured using the above procedure. As used herein, the IC50 for c-Abl kinase activity refers to the concentration of an inhibitor at which the activity of c-Abl kinase is reduced by one-half as compared with reactions containing no inhibitor.

[1] = target: T1, PDGF-receptor beta enzyme comprising the tyrosine kinase domain (Homo sapiens, UniProt P09619); assay: Inhibition of PDGF-receptor kinase activity (cell-free, PLC1 peptide, 33P Flashplate); format: biochemical; conditions: PDGF-R kinase activity; for inhibition at 10 µM: compound at 10 uM, read-out: Percent Inhibition @ 10 uM; for pIC50: read-out: IC50
T1 construct: from amino acid 545 to 1106 of GenBank Access NO: AAA36427
T1 sequence (P09619 545-1106): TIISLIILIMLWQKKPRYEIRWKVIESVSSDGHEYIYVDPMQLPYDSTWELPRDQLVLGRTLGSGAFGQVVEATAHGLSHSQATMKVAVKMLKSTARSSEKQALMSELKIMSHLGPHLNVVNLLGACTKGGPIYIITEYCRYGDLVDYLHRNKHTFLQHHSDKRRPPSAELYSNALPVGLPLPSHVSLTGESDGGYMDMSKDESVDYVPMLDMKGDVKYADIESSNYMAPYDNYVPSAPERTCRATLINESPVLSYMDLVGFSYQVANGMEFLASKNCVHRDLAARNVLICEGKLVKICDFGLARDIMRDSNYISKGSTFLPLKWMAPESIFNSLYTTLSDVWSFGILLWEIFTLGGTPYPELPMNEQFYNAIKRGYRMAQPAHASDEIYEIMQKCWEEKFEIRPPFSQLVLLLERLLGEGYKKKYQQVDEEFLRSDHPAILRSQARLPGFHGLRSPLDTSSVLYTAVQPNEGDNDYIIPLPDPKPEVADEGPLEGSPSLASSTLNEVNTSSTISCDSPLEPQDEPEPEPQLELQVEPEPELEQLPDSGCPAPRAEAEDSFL
In short: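 The IC50 is the inhibitor level halving kinase activity relative to inhibitor-free wells, measured as 33P captured on a streptavidin-bound biotin-PLC1 peptide. The reaction ran 60 min at 30 °C in pH 8 Tris buffer with 1 mM DTT, 5 μM ATP and the 545–1106 kinase-domain enzyme.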

Chain of c-Abl kinase (P00521 115-385): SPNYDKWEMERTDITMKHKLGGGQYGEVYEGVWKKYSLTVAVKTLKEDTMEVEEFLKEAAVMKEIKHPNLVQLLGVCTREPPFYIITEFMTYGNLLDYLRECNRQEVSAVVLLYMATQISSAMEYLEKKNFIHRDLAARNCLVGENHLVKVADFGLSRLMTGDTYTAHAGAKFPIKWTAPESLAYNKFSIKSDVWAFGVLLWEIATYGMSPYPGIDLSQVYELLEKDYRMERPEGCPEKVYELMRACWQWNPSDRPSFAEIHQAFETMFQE

For COc1cc2c(cc1OCCCn1ccnc1)Cc1c-2n[nH]c1Nc1ccc(F)c(Cl)c1 [Compound 227, (3-Chloro-4-fluoro-phenyl)-[6-(3-imidazol-1-yl-propoxy)-7-methoxy-2,4-dihydro-indeno[1,2-c]pyrazol-3-yl]-amine], the pIC50 (c-Abl kinase) was 6.19, the inhibition at 10 µM [1] was 83.5% and the pIC50 [1] was 7.46.

COc1cc2c(cc1OC)C(C)c1c-2n[nH]c1Nc1ccccc1 (stereo not drawn) [Compound 247, (6,7-Dimethoxy-4-methyl-2,4-dihydro-indeno[1,2-c]pyrazol-3-yl)-phenyl-amine] was tested, and the pIC50 (c-Abl kinase) was 7.48, the inhibition at 10 µM [1] was 96% and the pIC50 [1] was 7.15.

In the case of COc1cc2c(cc1OC)C(C)c1c-2n[nH]c1Nc1cccc(F)c1 (stereo not drawn) [Compound 249, (6,7-Dimethoxy-4-methyl-2,4-dihydro-indeno[1,2-c]pyrazol-3-yl)-(3-fluoro-phenyl)-amine], the pIC50 (c-Abl kinase) was 7.46, the inhibition at 10 µM [1] was 96% and the pIC50 [1] was 8.22.

COc1cccc(Nc2[nH]nc3c2C(C)c2cc(OC)c(OC)cc2-3)c1 (stereo not drawn) [Compound 253, (6,7-Dimethoxy-4-methyl-2,4-dihydro-indeno[1,2-c]pyrazol-3-yl)-(3-methoxy-phenyl)-amine] was tested, and the pIC50 (c-Abl kinase) was 7.42, the inhibition at 10 µM [1] was 94% and the pIC50 [1] was 7.78.

In the case of COc1cc2c(cc1OC)C(C)c1c-2n[nH]c1Nc1cccc(Br)c1 (stereo not drawn) [Compound 256, (3-Bromo-phenyl)-(6,7-dimethoxy-4-methyl-2,4-dihydro-indeno[1,2-c]pyrazol-3-yl)-amine], the pIC50 (c-Abl kinase) was 7.26, the inhibition at 10 µM [1] was 89% and the pIC50 [1] was 8.10.

Work on COc1cccc(Nc2[nH]nc3c2Cc2cc(OCC(O)CO)c(OC)cc2-3)c1 (stereo not drawn) [Compound 260, 3-[7-Methoxy-3-(3-methoxy-phenylamino)-2,4-dihydro-indeno[1,2-c]pyrazol-6-yloxy]-propane-1,2-diol] yielded a pIC50 (c-Abl kinase) of 7.89, an inhibition at 10 µM [1] of 91% and a pIC50 [1] of 8.82.

Molecule COc1cc2c(cc1OCC(O)CO)Cc1c-2n[nH]c1Nc1ccc(F)c(Cl)c1 (stereo not drawn) [Compound 261, 3-[3-(3-Chloro-4-fluoro-phenylamino)-7-methoxy-2,4-dihydro-indeno[1,2-c]pyrazol-6-yloxy]-propane-1,2-diol] has a pIC50 (c-Abl kinase) of 7.19, an inhibition at 10 µM [1] of 71% and a pIC50 [1] of 8.00.

Work on COc1cc2c(cc1OCC(O)CO)Cc1c-2n[nH]c1Nc1cccc(F)c1 (stereo not drawn) [Compound 262, 3-[3-(3-Fluoro-phenylamino)-7-methoxy-2,4-dihydro-indeno[1,2-c]pyrazol-6-yloxy]-propane-1,2-diol] yielded a pIC50 (c-Abl kinase) of 7.57, an inhibition at 10 µM [1] of 90% and a pIC50 [1] of 9.00.

Molecule COc1cc2c(cc1OCC(O)CO)Cc1c-2n[nH]c1Nc1cccnc1 (stereo not drawn) [Compound 263, 3-[7-Methoxy-3-(pyridn-3-ylamino)-2,4-dihydro-indeno[1,2-c]pyrazol-6-yloxy]-propane-1,2-diol] has a pIC50 (c-Abl kinase) of 6.29, an inhibition at 10 µM [1] of 103% and a pIC50 [1] of 7.34.

For COc1cc2c(cc1OCCCO)Cc1c-2n[nH]c1Nc1cccc(F)c1 [Compound 265, 3-[3-(3-Fluoro-phenylamino)-7-methoxy-2,4-dihydro-indeno[1,2-c]pyrazol-6-yloxy]-propan-1-ol], the pIC50 (c-Abl kinase) was 7.07, the inhibition at 10 µM [1] was 63% and the pIC50 [1] was 8.26.

COc1cccc(Nc2[nH]nc3c2Cc2cc(OCCCO)c(OC)cc2-3)c1 [Compound 266, 3-[7-Mehoxy-3-(3-methoxy-phenylamino)-2,4-dihydro-indeno[1,2-c]pyrazol-6-yloxy]-propan-1-ol] gave a pIC50 (c-Abl kinase) of 7.82, an inhibition at 10 µM [1] of 110% and a pIC50 [1] of 8.81.

Work on COc1cc2c(cc1OCCCO)Cc1c-2n[nH]c1Nc1ccc(F)c(Cl)c1 [Compound 267, 3-[3-(3-Choloro-4-fluoro-phenylamino)-7-methoxy-2,4-dihydro-indeno[1,2-c]pyrazol-6-yloxy]-propan-1-ol] yielded a pIC50 (c-Abl kinase) of 6.49, an inhibition at 10 µM [1] of 93.5% and a pIC50 [1] of 7.98.

For COc1cc2c(cc1OCCCO)Cc1c-2n[nH]c1Nc1cccc(Cl)c1 [Compound 268, 3-[3-(3-Chloro-phenylamino)-7-methoxy-2,4-dihydro-indeno[1,2-c]pyrazol-6-yloxy]-propan-1-ol], the pIC50 (c-Abl kinase) was 7.70, the inhibition at 10 µM [1] was 84% and the pIC50 [1] was 8.95.

In the case of COc1cc2c(cc1OCC(O)CN1CCCC1)Cc1c-2n[nH]c1Nc1cccc(F)c1 (stereo not drawn) [Compound 269, 1-[3-(3-Fluoro-phenylamino)-7-methoxy-2,4-dihydro-indeno[1,2-c]pyrazol-6-yloxy]-3-pyrrolidin-1-yl-propan-2-ol], the pIC50 (c-Abl kinase) was 7.00, the inhibition at 10 µM [1] was 94% and the pIC50 [1] was 9.23.

Work on COc1cccc(Nc2[nH]nc3c2Cc2cc(OCC(O)CN4CCCC4)c(OC)cc2-3)c1 (stereo not drawn) [Compound 270, 1-[7-Methoxy-3-(3-methoxy-phenylamino)-2,4-dihydro-indeno[1,2-c]pyrazol-6-yloxy]-3-pyrrolidin-1-yl-propan-2-ol] yielded a pIC50 (c-Abl kinase) of 7.44, an inhibition at 10 µM [1] of 107% and a pIC50 [1] of 9.37.

In the case of COc1cc2c(cc1OCC(O)CN1CCCC1)Cc1c-2n[nH]c1Nc1ccc(F)c(Cl)c1 (stereo not drawn) [Compound 280, 1-[3-(3-Chloro-4-fluoro-phenylamino)-7-methoxy-2,4-dihydro-indeno[1,2-c]pyrazol-6-yloxy]-3-pyrrolidin-1-yl-propan-2-ol], the pIC50 (c-Abl kinase) was 6.44, the inhibition at 10 µM [1] was 102% and the pIC50 [1] was 8.76.

With COc1cc2c(cc1OCC(O)CN1CCCC1)Cc1c-2n[nH]c1Nc1cccnc1 (stereo not drawn) [Compound 281, 1-[7-Methoxy-3-(pyridin-3-ylamino)-2,4-dihydro-indeno[1,2-c]pyrazol-6-yloxy]-3-pyrrolidin-1-yl-propan-2-ol] the pIC50 (c-Abl kinase) was 5.80, the inhibition at 10 µM [1] was 67% and the pIC50 [1] was 8.59.

COc1cc2c(cc1OCC(O)CN1CCCC1)Cc1c-2n[nH]c1Nc1cccc(Cl)c1 (stereo not drawn) [Compound 282, 1-[3-(3-Chloro-phenylamino)-7-methoxy-2,4-dihydro-indeno[1,2-c]pyrazol-6-yloxy]-3-pyrrolidin-1-yl-propan-2-ol] was tested, and the pIC50 (c-Abl kinase) was 7.37, the inhibition at 10 µM [1] was 99% and the pIC50 [1] was 10.05.

COCCCOc1cc2c(cc1OCCCOC)-c1n[nH]c(Nc3cccc(F)c3)c1C2 [Compound 283, [6,7-Bis-(3-methoxy-propoxy)-2,4-dihydroindeno[1,2-c]pyrazol-3-yl]-(3-fluoro-phenyl)-amine] gave a pIC50 (c-Abl kinase) of 6.47, an inhibition at 10 µM [1] of 86.5% and a pIC50 [1] of 8.36.

COCCCOc1cc2c(cc1OCCCOC)-c1n[nH]c(Nc3cccc(OC)c3)c1C2 [Compound 284, [6,7-Bis-(3-methoxy-propoxy)-2,4-dihydroindeno[1,2-c]pyrazol-3-yl]-(3-methoxy-phenyl)-amine] showed a pIC50 (c-Abl kinase) of 7.16, an inhibition at 10 µM [1] of 84.6% and a pIC50 [1] of 8.29.

With COCCCOc1cc2c(cc1OCCCOC)-c1n[nH]c(Nc3cccnc3)c1C2 [Compound 286, [6,7-Bis-(3-methoxy-propoxy)-2,4-dihydro-indeno[1,2-c]pyrazol-3-yl]-pyridin-3-yl-amine] the pIC50 (c-Abl kinase) was 5.53, the inhibition at 10 µM [1] was 95.5% and the pIC50 [1] was 7.79.

Molecule COCCCOc1cc2c(cc1OCCCOC)-c1n[nH]c(Nc3ccc(F)c(Cl)c3)c1C2 [Compound 287, [6,7-Bis-(3-methoxy-propoxy)-2,4-dihydro-indeno[1,2-c]pyrazol-3-yl]-(3-Chloro-4-fluoro-phenyl)-amine] has a pIC50 (c-Abl kinase) of 5.46, an inhibition at 10 µM [1] of 92.5% and a pIC50 [1] of 7.58.

With CC(O)c1cccc(Nc2[nH]nc3c2Cc2cc(F)ccc2-3)c1 (stereo not drawn) [Compound 289, 1-[3-(6-Fluoro-2,4-dihydro-indeno[1,2-c]pyrazol-3-ylamino)-phenyl]-ethanol] the pIC50 (c-Abl kinase) was 5.62, the inhibition at 10 µM [1] was 93.5% and the pIC50 [1] was 7.73.

CCOc1cc2c(cc1OCC)-c1n[nH]c(NCc3ccccc3Cl)c1C2 [Compound 292, (2-Chloro-benzyl)-(6,7-diethoxy-2,4-dihydro-indeno[1,2-c]pyrazol-3-yl)-amine] showed a pIC50 (c-Abl kinase) of 9.00, an inhibition at 10 µM [1] of 86.5% and a pIC50 [1] of 7.74.

Work on Fc1ccc2c(c1)-c1n[nH]c(Nc3ccccc3)c1C2 [Compound 299, (7-Fluoro-2,4-dihydro-indeno[1,2-c]pyrazol-3-yl)-phenyl-amine] yielded a pIC50 (c-Abl kinase) of 6.70, an inhibition at 10 µM [1] of 80% and a pIC50 [1] of 7.71.
